Measured values as given in patent US9801898B2, “Glutamate dehydrogenase 1 inhibitors and methods of treating cancer” (Emory University, priority 2015, dated 2017).
Entries after “also recorded” stand apart in the source; their conditions may differ. Blank lines part the entries; values can stand above or below the compound they belong to.

How the values were obtained:
[1] = molecular target: T1, 6-phosphogluconate dehydrogenase (6PGD) (Homo sapiens, UniProt P52209); test: 6PGD enzyme activity in vitro; assay type: biochemical
T1 sequence (P52209 1-483): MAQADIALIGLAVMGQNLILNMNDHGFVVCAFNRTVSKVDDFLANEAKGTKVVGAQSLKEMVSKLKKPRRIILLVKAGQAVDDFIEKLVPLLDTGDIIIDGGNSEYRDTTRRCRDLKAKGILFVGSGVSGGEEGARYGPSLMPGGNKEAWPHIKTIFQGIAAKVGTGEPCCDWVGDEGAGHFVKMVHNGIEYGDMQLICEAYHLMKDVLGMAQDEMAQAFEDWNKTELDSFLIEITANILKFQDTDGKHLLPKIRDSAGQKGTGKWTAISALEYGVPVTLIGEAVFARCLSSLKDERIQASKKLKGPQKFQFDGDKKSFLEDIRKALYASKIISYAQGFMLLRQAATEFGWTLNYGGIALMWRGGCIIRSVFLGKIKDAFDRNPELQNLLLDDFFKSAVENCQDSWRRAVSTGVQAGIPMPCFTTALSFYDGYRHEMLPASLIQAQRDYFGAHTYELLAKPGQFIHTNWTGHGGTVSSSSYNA

[2] = molecular target: T2, GDH1 (Homo sapiens, UniProt P00367); settings: cited from earlier work
[3] = molecular target: T3, fumarate hydratase (FH) (Homo sapiens, UniProt P07954); test: FH enzyme activity in vitro; assay type: biochemical
T3 sequence (P07954 45-510): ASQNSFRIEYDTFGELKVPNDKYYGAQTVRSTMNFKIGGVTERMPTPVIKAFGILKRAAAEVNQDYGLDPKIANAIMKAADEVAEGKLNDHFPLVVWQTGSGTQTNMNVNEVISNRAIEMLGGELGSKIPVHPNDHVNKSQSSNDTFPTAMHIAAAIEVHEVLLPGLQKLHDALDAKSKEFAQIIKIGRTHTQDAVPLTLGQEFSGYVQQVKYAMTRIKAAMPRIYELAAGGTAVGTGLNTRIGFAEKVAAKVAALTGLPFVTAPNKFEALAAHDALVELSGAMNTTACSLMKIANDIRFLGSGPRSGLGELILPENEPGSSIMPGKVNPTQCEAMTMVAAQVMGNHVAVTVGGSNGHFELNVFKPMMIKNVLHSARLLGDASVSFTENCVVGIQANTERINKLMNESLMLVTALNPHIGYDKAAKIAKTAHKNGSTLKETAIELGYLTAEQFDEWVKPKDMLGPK

[4] = test system: H1299 and MDA-MB231 cells; test: Fumarate, GPx activity and ROS levels in R162-treated cells; assay type: cell-based, human
Protocol: (§1) GDH1 enzyme activity assay was performed. Total cell lysates (20 microg) or 100 ng of purified GDH1 was added to a reaction mixture containing 50 mM triethanolamine (pH 8.0), 100 mM ammoniumacetate, 100 microM NADPH, and 2.6 mM EDTA. […] GPx, SOD, TRX, GSR, and CAT enzyme activities were determined by using commercially available kits from Biovision according to the manufacturer's instructions. PRX enzyme activity was assayed by coupling its activity to oxidation of NADPH via TRXs.

[5] = test system: H1299 GDH1 knockdown xenograft; test: NAC rescue in H1299 GDH1 knockdown xenograft mice; assay type: in vivo; settings: NAC 10 mg/ml drinking water
Protocol: Nude mice (athymic nu/nu, female, 4-6 weeks old; Harlan) were subcutaneously injected with H1299 cells harboring empty vector on the left flank, and cells with stable knockdown of GDH1 on the right flank, respectively. For the NAC rescue experiment, mice of the NAC rescue group were treated with NAC drinking water at 10 mg/ml from 3 days after H1299-GDH1 shRNA cells injection for 42 days. […] Tumor growth was recorded by measurement of two perpendicular diameters of the tumors, and tumor size was calculated. The tumors were harvested and weighed at the experimental endpoint.
Nude mice were subcutaneously injected with control H1299 cells harboring empty vector or GDH1 knockdown cells. NAC at a concentration of 10 mg/ml was administered via drinking water to half of the mice injected with GDH1 knockdown cells.

[6] = test system: GDH1 knockdown cells (H1299, MDA-MB231); test: Rescue experiments in GDH1 knockdown cancer cells; assay type: cell-based, human
Protocol: (§2) Adherent cells or leukemia cells were seeded in six-well plate, and cell numbers were determined by trypan blue exclusion using TC10 automated cell counter (Bio-Rad).

[7] = molecular target: T2, GDH1; test: GDH1 enzyme activity assay with purified GDH1; assay type: biochemical; settings: for potency and specificity for GDH1 inhibition in comparison of purpurin, R162 and EGCG: in vitro and in cancer cells; for inhibitory effect on GDH1 enzyme activity in vitro: purified GDH1
Protocol: as §1

[8] = test system: H1299 xenograft; test: H1299 xenograft nude mice, R162 treatment; assay type: in vivo
Protocol: Nude mice (athymic nu/nu, female, 4-6 weeks old; Harlan) were subcutaneously injected with H1299 cells harboring empty vector on the left flank, and cells with stable knockdown of GDH1 on the right flank, respectively. For the NAC rescue experiment, mice of the NAC rescue group were treated with NAC drinking water at 10 mg/ml from 3 days after H1299-GDH1 shRNA cells injection for 42 days. To evaluate the efficacy of R162, the drug was administered from a day after H1299 cells injection by daily intraperitoneal injection of 30 mg/kg for 35 days. Fifty percent of DMSO in PBS was as a diluent control. Tumor growth was recorded by measurement of two perpendicular diameters of the tumors, and tumor size was calculated. The tumors were harvested and weighed at the experimental endpoint. Tumor proliferation was determined by Ki-67 IHC staining.
An in vivo R162 treatment was performed using H1299-xenograft nude mice. A day after xenograft injection, mice were divided into two groups (n=8 per group) and treated with either R162 ([…]) or control DMSO for 35 days.

[9] = Cell permeability; assay type: in vitro ADME
[10] = test system: mononucleocytes in peripheral blood samples from healthy human donors; test: Cell viability of mononucleocytes from healthy donors; assay type: cell-based
[11] = test system: HaCaT, MRC-5 and HFF cells; test: Cell viability in control proliferating human cells; assay type: cell-based; settings: MRC-5, HFF control proliferative human cells
[12] = test system: human lung cancer, breast cancer, and leukemia cell lines; test: Cell viability in cancer cell lines; assay type: cell-based
[13] = test system: primary leukemia cells from myeloid leukemia patients; test: Cell viability of primary leukemia cells; assay type: cell-based, human
[14] = molecular target: T4, mitochondrial GDH (Homo sapiens, UniProt P00367); test: GDH activity in cancer cells treated with compound; assay type: cell-based; settings: compared with purpurin; R162 20 microM
T4 construct: GDH activity in cancer cells treated with R162 (20 microM); endogenous in cells; host or cells: cancer cells (probably H1299 and MDA-MB231)
Protocol: as §1

[15] = In vivo toxicity study (hematology, histopathology); parameters: species or system mice
Protocol: The in vivo efficacy of R162 in the treatment of xenograft tumor mouse models was tested. For initial in vivo toxicity studies, 30 mg/kg/day of R162 was administered to mice for 30 days by intraperitoneal injection.

[16] = molecular target: T2, GDH1; test: Thermal melt shift assay; assay type: binding; settings: increasing concentrations of R162
Protocol: To examine the interaction between GDH1 and R162, a thermal melt shift assay was performed.

[17] = test system: H1299 and MDA-MB231 cells; test: Cell proliferation assay (cell counting); assay type: cell-based, human
Protocol: as §2

[18] = molecular target: T5, GPx1 (Homo sapiens, UniProt P07203); test: Radiometric 14C-fumarate/14C-alpha-KG-GPx1 binding assay
T5 construct: made in house; host or cells: 293T cells (transfected)
T5 sequence (P07203 1-203): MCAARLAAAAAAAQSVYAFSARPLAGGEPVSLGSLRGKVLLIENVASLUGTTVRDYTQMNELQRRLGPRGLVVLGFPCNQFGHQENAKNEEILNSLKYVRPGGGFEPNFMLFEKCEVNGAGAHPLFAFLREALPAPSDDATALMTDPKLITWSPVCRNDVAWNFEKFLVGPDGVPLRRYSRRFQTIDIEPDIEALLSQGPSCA
Text: The beads were then washed with TBS buffer. The bead-bound GPx1 protein was eluted with 10 microg flag peptides, and radioactivity was detected by liquid scintillation counting.

[19] = molecular target: T5, GPx1; test: Activity of purified GPx1 in the presence of metabolites; assay type: biochemical; settings: physiological concentrations of metabolite; GPx1 from mammalian cells or human erythrocytes
Protocol: as §1
GPx activity in GDH1 knockdown cells.

[20] = molecular target: T2, GDH1; test: Tryptophan fluorescence binding assay; settings: purified GDH1, tryptophan fluorescence binding
Protocol: Purified GDH1 was incubated with increasing concentrations of purpurin.

[21] = R162 20 mg/kg/day for 35 days vs control DMSO

T2 sequence (P00367 54-558): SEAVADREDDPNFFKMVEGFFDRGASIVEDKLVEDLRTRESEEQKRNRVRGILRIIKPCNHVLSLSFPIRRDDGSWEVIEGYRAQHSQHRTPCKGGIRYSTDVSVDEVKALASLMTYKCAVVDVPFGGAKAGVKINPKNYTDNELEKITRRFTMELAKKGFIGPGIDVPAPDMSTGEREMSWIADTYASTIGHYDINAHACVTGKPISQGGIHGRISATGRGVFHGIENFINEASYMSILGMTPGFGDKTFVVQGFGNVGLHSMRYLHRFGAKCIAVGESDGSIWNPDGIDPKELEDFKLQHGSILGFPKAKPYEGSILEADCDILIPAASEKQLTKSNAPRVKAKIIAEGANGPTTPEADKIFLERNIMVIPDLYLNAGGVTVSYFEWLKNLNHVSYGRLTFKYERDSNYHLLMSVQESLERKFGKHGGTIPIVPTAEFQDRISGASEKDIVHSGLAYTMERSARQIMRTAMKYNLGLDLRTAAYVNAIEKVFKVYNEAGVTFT
T4 sequence (P00367 54-558): as above

Compound: O=C(O[C@@H]1Cc2c(O)cc(O)cc2O[C@@H]1c1cc(O)c(O)c(O)c1)c1cc(O)c(O)c(O)c1 [EGCG, epigallocatechin gallate]
- effect on activity of 6PGD [1]: significantly affected activity
- GDH1 inhibition as reported [2]: reported to inhibit GDH1 activity
- effect on activity of FH [3]: significantly affected activity

Compound: CC(=O)N[C@@H](CS)C(=O)O [NAC, N-acetylcysteine]
- rescue of R162 effects (fumarate, GPx activity, ROS, cell proliferation) ([4]; R162-treated H1299 and MDA-MB231 cells): significantly rescued
- rescue of attenuated tumor growth [5]: partially rescued
- rescue of increased ROS [6]: significantly rescued
- rescue of reduced cell proliferation [6]: significantly rescued

Compound: C=CCc1ccc2c(c1O)C(=O)c1ccccc1C2=O [R162, 2-allyl-1-hydroxyanthracene-9,10-dione]
- GPx activity ([4]; H1299 and MDA-MB231 cells): attenuated GPx activity
- intracellular fumarate levels ([4]; H1299 and MDA-MB231 cells): decreased intracellular fumarate levels
- ROS levels ([4]; cancer cells (H1299, MDA-MB231) treated with R162): elevated ROS levels; also recorded: increased ROS levels
- mode of inhibition (Lineweaver-Burk plot) ([7]; different concentrations of GDH1 substrate alpha-KG): mixed model inhibitor
- potency and specificity for GDH1 inhibition in comparison of purpurin, R162 and EGCG [7]: more potent and specific
- inhibitory effect on GDH1 enzyme activity in vitro [7]: potent GDH1 inhibitor
- tumor growth [8, 21]: significantly decreased
- tumor masses [8, 21]: significantly decreased
- GDH1 activity in resected tumors ([8]; xenograft nude mice): effectively inhibited GDH1 activity
- cell permeability [9]: more cell-permeable than purpurin
- cell viability [10]: did not affect cell viability
- cell viability [11]: but not in human proliferating cells
- cell viability [12]: attenuated cell viability
- cell viability [13]: decreased cell viability
- inhibitory effect on mitochondrial GDH activity in cancer cells [14]: more potent inhibitory effects
- histopathological change ([15]; 30 mg/kg/day for 30 days, intraperitoneal, vs vehicle): did not result in a significant histopathological change
- Basophils ([15]; mice, 30 mg/kg/day): 0.105 ± 0.06 ×10^3/μl
- Eosinophils ([15]; mice, 30 mg/kg/day): 0.21 ± 0.07 ×10^3/μl
- HCT ([15]; mice, 30 mg/kg/day): 45.95 ± 3.74%
- HGB ([15]; mice, 30 mg/kg/day): 11.1 ± 1.55 g/dL
- LYM ([15]; mice, 30 mg/kg/day): 3.145 ± 0.10 ×10^3/μl
- MCH ([15]; mice, 30 mg/kg/day): 13.35 ± 0.91 pg
- MCHC ([15]; mice, 30 mg/kg/day): 24.1 ± 1.41 g/dL
- MCV ([15]; mice, 30 mg/kg/day): 55.35 ± 0.49 fL
- MONO ([15]; mice, 30 mg/kg/day): 0.165 ± 0.007 ×10^3/μl
- MPV ([15]; mice, 30 mg/kg/day): 6.05 ± 0.21 fL
- NEU ([15]; mice, 30 mg/kg/day): 1.71 ± 0.18 ×10^3/μl
- RBC ([15]; mice, 30 mg/kg/day): 8.3 ± 0.60 ×10^6/μl
- RDW ([15]; mice, 30 mg/kg/day): 18.5 ± 0.56%
- WBC ([15]; mice, 30 mg/kg/day): 5.33 ± 0.41 ×10^3/μl
- melting temperature (Tm) of GDH1 [16]: raised the melting temperature (Tm) in a dose-dependent manner
- cell proliferation [17]: reduced cell proliferation

- retention of 14C-labeled metabolite on GPx1 [18]: retained on GPx1
- Kd ([18]; read-out: Kd value of the GPx1-fumarate interaction): 75.5 ± 5.22 µM
- activity of purified human GPx1 [19]: significantly increased
Compound: O=C(O)/C=C/C(=O)O [fumarate]

Compound: O=C1c2ccccc2C(=O)c2c(O)c(O)cc(O)c21 [purpurin, reference compound]
- potency and specificity for GDH1 inhibition in comparison of purpurin, R162 and EGCG [7]: more potent and specific
- inhibitory effect on GDH1 enzyme activity in vitro [7]: dramatic inhibitory effects
- Ki ([7]; recombinant, purified active GDH1, in vitro GDH activity assay): 1.9 ± 0.26 µM
- cell permeability [9]: not cell permeable
- Kd [20]: 11.5 ± 1.17 µM
